We go through seven compounds from paper PMC12150326 (The Journal of Organic Chemistry, 2025).

Where two headings read alike, the source gives them in different places. Some results are limits rather than exact numbers.

The conditions of series [1]: cited from earlier work.
Series [2] relates to PC3. Description: Cell-growth inhibition (CellTiter). The class given is cell-based, human. Conditions: Homo sapiens, PC-3, 72 h, read-out: Cell Growth Inhibition GI50 ± SE. As for the experimental part:
(§1) Inhibition of cell growth was determined by using standard procedures. Cell lines were obtained from the NCI anticancer drug screen and maintained in DMEM medium supplemented with 10% fetal bovine serum. Growing cells were exposed to serial dilutions of each compound for 3 days. Cell growth was determined with CellTiter Assay Reagent (Promega), and growth parameters, including inhibition of growth, were measured by using the methods specified by the manufacturer.

In series [3] the test system is M14. Description: Cell-growth inhibition (CellTiter). Format: cell-based, human. Conditions: Homo sapiens, M14, 72 h, read-out: Cell Growth Inhibition GI50 ± SE. As for the experimental part:
as §1

Series [4] deals with A549. Description: Cell-growth inhibition (CellTiter). Format: cell-based, human. Conditions: Homo sapiens, A549, 72 h, read-out: Cell Growth Inhibition GI50 ± SE. How it is done: as §1
For series [5], the system named is bovine brain tubulin. Description: Tubulin polymerization inhibition. Format: biochemical. Conditions: 10 μM tubulin; for Polymerization Inhibition (%) 3.3 μM: 3.3 μM compound; for Polymerization Inhibition (%) 33 μM: 33 μM compound. How it is done: Inhibition of tubulin polymerization was determined as described previously. In brief, 10 μM bovine brain tubulin (PurSolutions, LLC (puresoluble.com)) was incubated under conditions strongly promoting polymerization of tubulin (1 M NaGlutamate, 0.1 M Mes (Morpholinoethanesulfonic acid), 1 mM MgCl2, 0.5 mM GTP, pH 6.9), in the absence or presence of 3.3 or 33 μM test compound, incubated for 30 min at 37 °C, then centrifuged at 100,000g for 8 min, and the top 3/4 of the supernatant removed. Protein concentration was measured, and polymerization was determined as pelletable protein lost from the supernatant.

Series [6] has as its target colchicine site of bovine brain tubulin. Format: binding. Conditions: for Kd: tubulin binding constant, 25 °C, read-out: Kd. How it is done:
Inhibition of this fluorescence increase was measured and converted to K d for the test compound as described.

Series [7] can be described thus: Experimental rotational energy barrier (thermal racemization, chiral HPLC). Format: physicochemical. How it is done: (aR)-6 and (aS)-6 were readily separable from one another and racemic iso -6 through the use of a polysaccharide-based chiral column (Diacel IA column) fitted to an automated medium-pressure liquid chromatography unit (Biotage Isolera Prime). Racemization was observable after heating a solution of either enantiopure (aR)- or (aS)-6 at 135 °C in xylenes over a few hours, and the rate of enantiomerization was extrapolated using the Eyring equation (ΔG ^‡ = 31.2 ± 0.3 kcal/mol). (aR)- and (aS )-iso-6 were separable in an analogous fashion using a chiral IC polysaccharide column. […] Thus, we can project that the rotational energy barrier is […] 37 kcal/mol. However, a computationally determined rotational barrier for iso -6 was 33.5 kcal/mol, which is roughly 3 kcal/mol more than that calculated for 6. One potential explanation for this notable difference in configurational stability is the greater double bond character of the methyl-bearing C^4–C^5 carbon of iso -6 in comparison to the C^5–C^6 in 6, as this would both shorten and rigidify this steric-bearing bond (see Scheme A/B for details). […] Studies have previously described differences in rotational barriers of DAAC (2) and its analogous isomer that, while less dramatic, are consistent with this trend (ΔG ^‡ = 22.1 vs 23.4 kcal/mol). […]
IV. Experimental Profiling of Dihedral Angles
Rotational Energy Barrier Determination. A small spatula tip (~0.2 mg) of either (aR)-6 (aka, (aR)-MT-MTC) or (aS)-6 (aka, (aS)-MT-MTC) was diluted in 2 mL o-xylenes in a large vial containing a stir bar. The solution was heated to 135 °C open to air (temperature set to 135 °C, but fluxuated between 134 and 138 °C).
~100 µL aliquots were extracted from solution using a syringe fitted with a long disposable needle at various time intervals and diluted into automated sample vials containing 500 µL CH2Cl2 to rapidly cool. These samples were monitored on Agilent with an analytical HPLC IA column, using 0 – 40% iPrOH in Hexanes gradient over 30 minutes at a flow rate of 0.5 mL/min, and a pressure of roughly 5 bar). Samples eluted approximately 20 minutes into run, with (aR)-6 eluting first, followed by (aS)-6. Three separate runs were carried out, two of which monitored racemization of (aS)-6, and one of which monitored racemization of (aR)- […]
Integration of the HPLC traces were used to determine enantiomeric excess by calculating the difference between the two enantiomers and dividing that by the sum of the two enantiomers, and then multiplying that […]
provided a slope (corresponding to kracemization), and dividing this number […] providing kenantiomerization (or kent in equation below), with units inverse seconds. A summary of data follows (Table S5), and representative chromatograms illustrated in section VI.

In the case of `COc1cc2c(c(OC)c1OC)-c1ccc(OC)c(=O)cc1CCC2` [compound 2, desacetamidocolchicine], in series [1], the “ΔG‡ exp, rotational barrier” value is listed as 22.1 kcal/mol. Also, the “t1/2 rt of racemization” value in series [1] (room temperature ref 19) was ~ 0.5 h.

For orientation: GI50 means the concentration giving 50% growth inhibition. What is called Kd is the constant that tells how readily two partners part at equilibrium. `COc1ccc(-c2ccc(OC)c(=O)cc2)c(OC)c1OC` [compound 3, 2-methoxy-5-(2,3,4-trimethoxyphenyl)-2,4,6-cycloheptatrien-1-one, reference compound]: the figures for the GI50 in series [2], in series [3] and in series [4] were 30 ± 5 nM, 30 ± 7 nM and 30 ± 1 nM, respectively. In addition, in series [5], the “Polymerization Inhibition (%) 3.3 μM” value came out at 100%. Further, the “Polymerization Inhibition (%) 33 μM” value in series [5] was 100%. The Kd in series [6] was determined as 3.2 µM.

On to `COc1ccc(-c2ccc(OC)c(=O)cc2C)c(OC)c1OC` [compound 4, 2-Methoxy-6-methyl-5-(2,3,4-trimethoxyphenyl)cyclohepta-2,4,6-trien-1-one], for which the GI50 in series [2] (PC3, 3 days) is 190 ± 60 nM. In series [3] (M14, 3 days), the GI50 was found to be 250 ± 25 nM. The GI50 in series [4] (A549, 3 days) came out at 300 ± 10 nM. Also, in series [5], the “Polymerization Inhibition (%) 3.3 μM” value is reported as 0% and the “Polymerization Inhibition (%) 33 μM” value came out at 100%. In addition, in series [6], the “binding constant fold less potent than 3” value was 5–30 fold and the Kd was 20 µM.

Regarding `COc1cc(C)c(-c2ccc(OC)c(=O)cc2)c(OC)c1OC` [compound 5, 2-Methoxy-5-(2,3,4-trimethoxy-6-methylphenyl)cyclohepta-2,4,6-trien-1-one], the concentration for 50% growth inhibition (GI50) in series [2] (PC3, 3 days) was 220 ± 40 nM; in series [3] (M14, 3 days), 300 ± 10 nM; in series [4] (A549, 3 days), 300 ± 10 nM. In series [5], the “Polymerization Inhibition (%) 3.3 μM” value came out at 0%. The “Polymerization Inhibition (%) 33 μM” value in series [5] was found to be 100%. Besides, the “binding constant fold less potent than 3” value in series [6] is listed as 5–30 fold. Also, the Kd in series [6] was 14 µM.

`COc1cc(C)c(-c2ccc(OC)c(=O)cc2C)c(OC)c1OC` [compound 6, 2-Methoxy-6-methyl-5-(2,3,4-trimethoxy-6-methylphenyl)cyclohepta-2,4,6-trien-1-one]: the “ΔG‡ of enantiomerization, experimental” value in series [7] (135 °C in xylenes, Eyring equation) came out at 31.2 ± 0.3 kcal/mol.

In the case of `COc1ccc(-c2ccc(=O)c(OC)cc2C)c(OC)c1OC` [iso-4], the GI50 is > 3000 nM in series [2] (PC3, 3 days); > 3000 nM in series [3] (M14, 3 days); > 3000 nM in series [4] (A549, 3 days). Moreover, the “Polymerization Inhibition (%) 3.3 μM” value in series [5] is listed as 0%. Besides, in series [5], the “Polymerization Inhibition (%) 33 μM” value was found to be 0%. Besides, in series [6], the equilibrium dissociation constant (Kd) was determined as 230 µM.

Regarding `COc1cc(C)c(-c2ccc(=O)c(OC)cc2C)c(OC)c1OC` [iso-6, 2-Methoxy-4-methyl-5-(2,3,4-trimethoxy-6-methylphenyl)cyclohepta-2,4,6-trien-1-one], the racemization on heating result in series [7] (145 °C for 10 h) is reported as “no racemization was observed”. Moreover, the “projected rotational energy barrier” value in series [7] (from absence of racemization at 145 °C, 10 h) is reported as 37 kcal/mol.
